Experimental data published in patent US9481676B2, “Azepino[4,5-B]indoles and methods of use” (Medivation Technologies, Inc., priority 2008, dated 2016).

Tests used:
[1] = biological target: T1, human recombinant adrenergic α2A receptor (Homo sapiens, UniProt P08913); assay: Adrenergic alpha2A radioligand binding ([3H]MK-912); conditions: compound at 1 μM; read-out: Adrenergic (1 μM) α2A, percent inhibition of specific binding
T1 construct: expressed in transfected cells; host or cells: insect Sf9 cells
T1 sequence (P08913 1-465): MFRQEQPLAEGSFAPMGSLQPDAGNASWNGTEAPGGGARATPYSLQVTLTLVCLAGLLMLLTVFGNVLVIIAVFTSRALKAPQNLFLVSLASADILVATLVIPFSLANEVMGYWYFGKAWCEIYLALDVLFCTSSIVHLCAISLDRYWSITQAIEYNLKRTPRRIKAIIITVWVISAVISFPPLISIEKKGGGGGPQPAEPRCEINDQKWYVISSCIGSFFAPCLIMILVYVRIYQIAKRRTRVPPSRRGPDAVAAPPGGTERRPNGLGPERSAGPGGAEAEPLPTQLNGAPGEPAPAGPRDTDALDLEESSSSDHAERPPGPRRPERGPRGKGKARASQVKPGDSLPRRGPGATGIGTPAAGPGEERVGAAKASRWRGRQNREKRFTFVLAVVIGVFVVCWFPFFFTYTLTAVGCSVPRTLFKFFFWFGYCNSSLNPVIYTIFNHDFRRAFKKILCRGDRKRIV
Method in brief: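 Membranes of Sf9 cells expressing human recombinant α2A receptor were incubated with compound and 1 nM [3H]MK-912 for 60 min at 25 °C in 50 mM Tris-HCl pH 7.4, 12.5 mM MgCl2, 2 mM EDTA. Nonspecific binding: 10 μM WB-4101.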

[2] = biological target: T2, human recombinant histamine H1 receptor (Homo sapiens, UniProt P35367); assay: Histamine H1 radioligand binding ([3H]Pyrilamine); conditions: compound at 1 μM; read-out: Histamine Binding (1 μM) H1, percent inhibition of specific binding
T2 construct: expressed in transfected cells; host or cells: CHO cells
T2 sequence (P35367 whole entry): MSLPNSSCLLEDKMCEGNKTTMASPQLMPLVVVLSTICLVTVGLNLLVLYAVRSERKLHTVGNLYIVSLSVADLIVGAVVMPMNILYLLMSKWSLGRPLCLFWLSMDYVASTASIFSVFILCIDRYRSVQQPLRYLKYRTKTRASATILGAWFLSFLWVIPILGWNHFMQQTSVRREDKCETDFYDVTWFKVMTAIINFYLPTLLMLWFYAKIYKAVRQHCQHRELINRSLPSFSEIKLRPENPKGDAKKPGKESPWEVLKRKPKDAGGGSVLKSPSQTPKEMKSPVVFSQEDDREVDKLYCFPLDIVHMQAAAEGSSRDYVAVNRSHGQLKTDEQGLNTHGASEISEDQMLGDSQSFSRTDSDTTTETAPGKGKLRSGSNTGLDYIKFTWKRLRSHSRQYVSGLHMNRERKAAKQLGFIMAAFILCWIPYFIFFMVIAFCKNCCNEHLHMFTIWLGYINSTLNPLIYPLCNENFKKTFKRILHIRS
Method in brief: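 Membranes from CHO cells expressing the receptor were incubated with compound and 1.2 nM [3H]pyrilamine for 180 min at 25 °C in 50 mM Tris-HCl pH 7.4 with MgCl2, NaCl and sucrose; 1 μM pyrilamine defined non-specific binding. Filter-bound radioactivity was counted.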

[3] = biological target: T3, human recombinant dopamine D2L receptor (Homo sapiens, UniProt P14416); assay: Dopamine D2L radioligand binding ([3H]Spiperone); conditions: compound at 1 μM; read-out: Dopamine (1 μM) D2L, percent inhibition of specific binding
T3 construct: expressed in transfected cells; host or cells: CHO cells
T3 sequence (P14416 whole entry): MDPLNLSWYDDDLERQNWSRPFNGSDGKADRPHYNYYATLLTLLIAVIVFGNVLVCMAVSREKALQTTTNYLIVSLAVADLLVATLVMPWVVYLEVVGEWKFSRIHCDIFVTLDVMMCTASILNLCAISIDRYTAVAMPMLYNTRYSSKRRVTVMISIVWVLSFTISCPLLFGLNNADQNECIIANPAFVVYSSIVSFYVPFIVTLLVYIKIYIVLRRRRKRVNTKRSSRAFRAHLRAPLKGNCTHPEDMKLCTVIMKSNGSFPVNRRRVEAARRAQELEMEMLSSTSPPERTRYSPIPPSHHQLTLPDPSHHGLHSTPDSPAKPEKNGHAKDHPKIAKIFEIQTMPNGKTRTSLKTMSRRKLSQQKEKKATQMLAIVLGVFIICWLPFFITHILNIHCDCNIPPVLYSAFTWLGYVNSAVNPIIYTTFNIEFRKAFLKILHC
Method in brief: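 Binding measured by filtration and counting, reported as % inhibition of specific [3H]spiperone binding (0.16 nM tracer; 10 μM haloperidol for nonspecific). Compounds tested at ≤1 μM in 1% DMSO for 120 min at 25° C against CHO-expressed human D2L in pH 7.4 Tris-HCl buffer.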

[4] = biological target: T4, human recombinant histamine H2 receptor (Homo sapiens, UniProt P25021); assay: Histamine H2 radioligand binding ([125I]Aminopotentidine); conditions: compound at 1 μM; read-out: Histamine Binding (1 μM) H2, percent inhibition of specific binding
T4 construct: expressed in transfected cells; host or cells: CHO-K1 cells
T4 sequence (P25021 whole entry): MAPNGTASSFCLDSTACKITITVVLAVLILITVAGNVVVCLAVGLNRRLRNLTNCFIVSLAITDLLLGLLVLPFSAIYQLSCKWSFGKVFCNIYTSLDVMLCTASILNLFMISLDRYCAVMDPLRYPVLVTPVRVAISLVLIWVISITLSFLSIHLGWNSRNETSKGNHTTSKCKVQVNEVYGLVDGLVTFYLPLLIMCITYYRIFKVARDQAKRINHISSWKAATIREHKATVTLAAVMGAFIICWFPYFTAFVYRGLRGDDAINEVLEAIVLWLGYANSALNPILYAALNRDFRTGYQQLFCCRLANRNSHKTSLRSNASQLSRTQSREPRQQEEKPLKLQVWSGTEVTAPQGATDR
Method in brief: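 Membranes from CHO-K1 cells expressing recombinant human H2 receptor, in 50 mM phosphate buffer pH 7.4, incubated with 0.1 nM [125I]aminopotentidine for 120 min at 25 °C; nonspecific binding defined with 3 μM tiotidine.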

[5] = biological target: T5, human recombinant serotonin (5-Hydroxytryptamine) 5-HT2A receptor (Homo sapiens, UniProt P28223); assay: Serotonin 5-HT2A radioligand binding ([3H]Ketanserin); conditions: compound at 1 μM; read-out: Serotonin (1 μM) 5-HT2A, percent inhibition of specific binding
T5 construct: expressed in transfected cells; host or cells: CHO-K1 cells
T5 sequence (P28223 whole entry): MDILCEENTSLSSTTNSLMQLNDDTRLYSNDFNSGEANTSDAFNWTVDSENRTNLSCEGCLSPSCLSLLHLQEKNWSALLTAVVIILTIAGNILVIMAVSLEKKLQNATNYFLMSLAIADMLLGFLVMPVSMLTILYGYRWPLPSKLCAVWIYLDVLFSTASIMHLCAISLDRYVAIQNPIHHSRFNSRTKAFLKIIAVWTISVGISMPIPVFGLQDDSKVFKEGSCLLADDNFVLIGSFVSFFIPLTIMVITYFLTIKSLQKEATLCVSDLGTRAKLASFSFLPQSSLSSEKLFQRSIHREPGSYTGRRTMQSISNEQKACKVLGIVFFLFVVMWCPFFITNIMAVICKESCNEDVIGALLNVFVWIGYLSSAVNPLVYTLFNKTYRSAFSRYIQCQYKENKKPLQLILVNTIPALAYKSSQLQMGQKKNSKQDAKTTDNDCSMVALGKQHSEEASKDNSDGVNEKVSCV
Method in brief: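 Percent inhibition of specific [3H]ketanserin (0.5 nM) binding, filtration read-out, with compounds at ≤1 μM (1% DMSO vehicle). Receptor source: recombinant human 5-HT2A in CHO-K1 cells, 50 mM Tris-HCl pH 7.4, 60 min, 25 °C; 1 μM mianserin gives nonspecific binding.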

Structure (SMILES)	inhibition at 1 µM [1] [%]	inhibition at 1 µM [2] [%]	inhibition at 1 µM [3] [%]	inhibition at 1 µM [4] [%]	inhibition at 1 µM [5] [%]
Cc1ccc2c(c1)c1c(n2CC(O)c2ccc(F)cc2F)CCN(C)CC1 (stereo not shown) [Compound No. 59, 1-(2,4-difluorophenyl)-2-(2,3,4,5-tetrahydro-3,9-dimethylazepino[4,5-b]indol-6(1H)-yl)ethanol]	89	60	20	37	93
CN1CCc2c(n(CC(=O)N3CCOCC3)c3ccc(Cl)cc23)CC1 [Compound No. 60, 2-(9-chloro-2,3,4,5-tetrahydro-3-methylazepino[4,5-b]indol-6(1H)-yl)-1-morpholinoethanone]	7	2	-9	6	-7
CN1CCc2c(n(CCc3ccccc3F)c3ccc(Cl)cc23)CC1 [Compound No. 61, 6-(2-fluorophenethyl)-9-chloro-1,2,3,4,5,6-hexahydro-3-methylazepino[4,5-b]indole]	23	97	1	89	43
Cc1ccc2c(c1)c1c(n2CCc2ccccc2)CCN(C)CC1 [Compound No. 62, 1,2,3,4,5,6-hexahydro-3,9-dimethyl-6-phenethylazepino[4,5-b]indole]	11	98	7	79	12
Cc1ccc2c(c1)c1c(n2CCc2ccccc2F)CCN(C)CC1 [Compound No. 63, 6-(2-fluorophenethyl)-1,2,3,4,5,6-hexahydro-3,9-dimethylazepino[4,5-b]indole]	96	99	61	83	91
COc1ccc(C(O)Cn2c3c(c4cc(Cl)ccc42)CCN(C)CC3)cc1F (stereo not shown) [Compound No. 67, 2-(9-chloro-2,3,4,5-tetrahydro-3-methylazepino[4,5-b]indol-6(1H)-yl)-1-(3-fluoro-4-methoxyphenyl) ethanol]	102	100	50	72	100
COc1ccc(C(O)Cn2c3c(c4cc(C)ccc42)CCN(C)CC3)cc1F (stereo not shown) [Compound No. 68, 1-(3-fluoro-4-methoxyphenyl)-2-(2,3,4,5-tetrahydro-3,9-dimethylazepino[4,5-b]indol-6(1H)-yl)ethanol]	99	102	40	69	99
Cc1ccc2c(c1)c1c(n2CCc2ccccc2Cl)CCN(C)CC1 [Compound No. 69, 6-(2-chlorophenethyl)-1,2,3,4,5,6-hexahydro-3,9-dimethylazepino[4,5-b]indole]	8	2	-2	-9	52
CN1CCc2c(n(CC(=O)N3CCNCC3)c3ccc(Cl)cc23)CC1 [Compound No. 72, 2-(9-chloro-2,3,4,5-tetrahydro-3-methylazepino[4,5-b]indol-6(1H)-yl)-1-(piperazin-1-yl)ethanone]	-6	-12	-18	0	23
CN1CCc2c(n(CC(=O)Nc3ccccc3)c3ccc(Cl)cc23)CC1 [Compound No. 73, 2-(9-chloro-2,3,4,5-tetrahydro-3-methylazepino[4,5-b]indol-6(1H)-yl)-N-phenylacetamide]	28	18	-14	-5	18
CN1CCc2c(n(CC(=O)N(C)C3CCCCC3)c3ccc(Cl)cc23)CC1 [Compound No. 74, 2-(9-chloro-2,3,4,5-tetrahydro-3-methylazepino[4,5-b]indol-6(1H)-yl)-N-cyclohexyl-N-methylacetamide]	19	25	-2	9	27
CN1CCc2c(n(CC(=O)OCc3ccccc3)c3ccc(Cl)cc23)CC1 [Compound No. 75, Benzyl-2-(9-chloro-2,3,4,5-tetrahydro-3-methylazepino[4,5-b]indol-6(1H)-yl)acetate]	7	20	2	-4	34
Cc1ccc2c(c1)c1c(n2/C=C/c2ccccc2)CCN(C)CC1 [Compound No. 229, (E)-3,9-dimethyl-6-styryl-1,2,3,4,5,6-hexahydroazepino[4,5-b]indole]	100	100	68	94	100
COc1ccc(/C=C/n2c3c(c4cc(C)ccc42)CCN(C)CC3)c(F)c1 [Compound No. 230, (E)-6-(2-fluoro-4-methoxystyryl)-3,9-dimethyl-1,2,3,4,5,6-hexahydroazepino[4,5-b]indole]	102	95	48	89	97
Cc1ccc2c(c1)c1c(n2CC(=O)N(C)C2CCCCC2)CCN(C)CC1 [Compound No. 232, N-cyclohexyl-2-(3,9-dimethyl-2,3,4,5-tetrahydroazepino[4,5-b]indol-6(1H)-yl)-N-methylacetamide]	90	95	8	22	70
Cc1ccc2c(c1)c1c(n2/C=C/c2ccccc2F)CCN(C)CC1 [Compound No. 233, (E)-6-(2-fluorostyryl)-3,9-dimethyl-1,2,3,4,5,6-hexahydroazepino[4,5-b]indole]	97	98	73	94	102
CN1CCc2c(n(/C=C/c3ccc(F)cc3)c3ccc(Cl)cc23)CC1 [Compound No. 234, (E)-9-chloro-6-(4-fluorostyryl)-3-methyl-1,2,3,4,5,6-hexahydroazepino[4,5-b]indole]	98	99	71	92	101
Cc1ccc2c(c1)c1c(n2/C=C/c2ccc(Cl)cc2)CCN(C)CC1 [Compound No. 235, (E)-6-(4-chlorostyryl)-3,9-dimethyl-1,2,3,4,5,6-hexahydroazepino[4,5-b]indole]	95	97	42	94	102
CN1CCc2c(n(/C=C/c3ccc(F)c(F)c3)c3ccc(Cl)cc23)CC1 [Compound No. 236, (E)-9-chloro-6-(3,4-difluorostyryl)-3-methyl-1,2,3,4,5,6-hexahydroazepino[4,5-b]indole]	89	99	34	97	101
CN1CCc2c(n(CCc3ccccc3F)c3ccccc23)CC1 [Compound No. 237, 6-(2-fluorophenethyl)-3-methyl-1,2,3,4,5,6-hexahydroazepino[4,5-b]indole]	98	96	50	81	99
